Measured values published in patent publication US7371766B2, “Curcumin analogs with anti-tumor and anti-angiogenic properties” (Emory University, priority 1999, dated 2008).
Like-named read-outs stand apart in the source and are kept apart here.

Columns and labels:
[1] = system: Vascular Endothelial Growth Factor (VEGF) production by human melanoma cell line RPMI-7951; assay: VEGF ELISA, RPMI-7951; settings: for activity at 5 µM / activity at 20 µM: Homo sapiens, RPMI-7951, 72 h, read-out: VEGF; for VEGF ELISA / VEGF: RPMI-7951; for VEGF ELISA: DMSO control 3713
Experimental: RPMI-795 1, MDA-MB-231 and MDA-MB-435 cell lines were cultured in MEM-alpha medium (GIBCO-BRL, Long Island, N.Y.) containing 10% fetal bovine serum (RPMI-7951, MDA-MB-231) or 5% FBS (MDA-MB-435) at 37° C. and under 5% CO2/95% air. […] The cells were cultured in 48 well plates in all of the experiments described.
A VEGF enzyme-linked immunosorbent assay (ELISA) was utilized to determine the effect of the compounds of the present invention on VEGF production of a variety of human cancer cell lines. For the VEGF assay, cells were plated at a concentration of 80,000 cells/well and cultured overnight. Compounds or vehicle (DMSO 0.1%) were then added and the plates were incubated for 72 hours. Supernatant was then collected from each well and frozen in a −80° C. freezer until needed. Cell viability was determined by Neutral Red Assay. VEGF ELISA Kit (R & D, Minneapolis, Minn.) was used to determine the amount of VEGF in the culture supernatants. The ELISA was carried out according to the manufacturer's procedure.

RPMI-7951 human melanoma = assay: Neutral Red Assay, cell viability, RPMI-7951; settings: for viability at 5 µM / viability at 20 µM: Homo sapiens; for Cell Viability / Neutral Red Uptake, %: RPMI-7951; for Cell Viability: DMSO = 100; for Neutral Red Uptake, %: 72 hours
[2] = system: Vascular Endothelial Growth Factor (VEGF) production by human prostate cancer cell line DU-145; assay: VEGF ELISA, DU-145; type: cell-based; settings: for VEGF (% of DMSO): DMSO = 100%
[3] = system: Vascular Endothelial Growth Factor (VEGF) production by human prostate cancer cell line PC-3; assay: VEGF ELISA, PC-3; type: cell-based; settings: for VEGF (% of DMSO): DMSO = 100%
[4] = system: Tissue Factor (TF) production by human melanoma cell line RPMI-7951; assay: TF ELISA, RPMI-7951; type: cell-based
Experimental: IMUBIND Tissue Factor ELISA Kit (American Diagnostica Inc, Greenwich, Conn.) was used to determine TF concentration in each sample. The ELISA was carried out according to manufacturer's procedure.

[5] = 5 μM, DMSO control 4197 (EF-25: 1045)
[6] = RPMI-7951, 72 h, read-out: Neutral Red Uptake, %
[7] = RPMI-7951, read-out: Cell Viability
[8] = 20 μM, mean of triplicate and S.D., DMSO 18760 ± 2633
[9] = Table 4, 20 μM, mean of triplicate and S.D.
[10] = 20 μM, mean of triplicate and S.D., DMSO 2103 ± 100
[11] = Table 5, 5 μM, DMSO control 7054
[12] = Table 5, 20 μM, DMSO control 7054

Row | Structure (SMILES) | VEGF ELISA ([1]; 5 μM) | VEGF [1, 5] | VEGF ELISA ([1]; 20 μM) | VEGF ([1]; 20 μM, DMSO control 4197) | VEGF ([2]; Table 4, 20 μM, DMSO = 100) | VEGF [2, 9] | VEGF ([3]; Table 4, 20 μM, DMSO = 100) | VEGF [3, 9] | VEGF ([1]; 20 μM, DMSO = 100) | Cell Viability (RPMI-7951 human melanoma; 20 μM) | TF ([4]; 20 μM, DMSO = 100) | TF [4, 12] | other results
1 | O=C1CCC(N2C(=O)c3ccccc3C2=O)C(=O)N1 (stereo not drawn) [Thalidomide, reference compound] | 1810 pg/ml/well | 1865 pg/mL | 2827 pg/ml/well | 2387 pg/mL | – | – | – | – | – | – | – | – | activity at 5 µM [1]: 44%; activity at 20 µM [1]: 57%; viability at 5 µM (RPMI-7951 human melanoma; [6]): 100%; viability at 20 µM (RPMI-7951 human melanoma; [6]): 100%; viability at 5 µM (RPMI-7951 human melanoma; [7]): 105%; viability at 20 µM (RPMI-7951 human melanoma; [7]): 97%
2 | COc1ccc(CC2CCCC(Cc3ccc(OC)c(OC)c3)C2=O)cc1OC (stereo not drawn) [C] | – | – | – | – | 110% | 20559 ± 9224 pg/mL | 82% | 1734 ± 397 pg/mL | – | – | – | – | VEGF (% of DMSO) ([2]; 20 μM): (110%); VEGF [2, 8]: 20559 ± 9224 pg/mL; VEGF (% of DMSO) ([3]; 20 μM): (82%); VEGF [3, 10]: 1734 ± 397 pg/mL
3 | [O-][S+](/C=C\c1ccccc1)/C=C/c1ccccc1 (racemic) [EF14, E,Z3,5-Bisbenzylidenesulfoxide] | – | – | – | – | – | – | – | – | 36% | 86% | – | – | –
4 | COc1cc(CCC(=O)CC(=O)CCc2ccc(O)c(OC)c2)ccc1O [Compound A232] | – | – | – | – | 135% | 25308 ± 4722 pg/mL | 93% | 1955 ± 437 pg/mL | 40% | 78% | – | – | –
5 | COc1ccc(CCC(O)CCc2ccc(OC)c(OC)c2)cc1OC [MD279L, 1,5-Bis(3,4-dimethoxyphenyl)penta-3-ol] | 2235 pg/ml/well | 904 pg/mL | 1603 pg/ml/well | 0 pg/mL | – | – | – | – | 0% | 109% | 83% | 5858 pg/mL | VEGF ([1]; 5 μM, DMSO = 100): 22%; Neutral Red Uptake, % (RPMI-7951 human melanoma; 5 μM): 100 % of control; Cell Viability (RPMI-7951 human melanoma; 5 μM): 110%; Neutral Red Uptake, % (RPMI-7951 human melanoma; 20 μM): 100 % of control; TF ([4]; 5 μM, DMSO = 100): 82%; TF ELISA ([4]; 5 μM, DMSO control 7054): 5791 pg/ml/well; TF ELISA ([4]; 20 μM, DMSO control 7054): 5858 pg/ml/well; TF [4, 11]: 5791 pg/mL
6 | Oc1ccccc1CCC(O)CCc1ccccc1O [EF32, 1,5-Bis(2-hydroxyphenyl)-pentan-3-ol] | – | – | – | – | – | – | – | – | – | – | 123% | 8654 pg/mL | –
7 | COc1ccc(C=CC(O)CCc2ccc(OC)c(OC)c2)cc1OC (stereo not drawn) [Compound A239] | – | – | – | – | 145% | 27229 ± 2148 pg/mL | 80% | 1678 ± 293 pg/mL | 40% | 86% | – | – | –
8 | COc1ccc(CCC(=O)CCc2ccc(OC)c(OC)c2)cc1OC [MD279U, 1,5-Bis(3,4-dimethoxyphenyl)penta-3-one] | 2511 pg/ml/well | 1197 pg/mL | 779 pg/ml/well | 1179 pg/mL | – | – | – | – | 18% | 113% | 75% | 5316 pg/mL | VEGF ([1]; 5 μM, DMSO = 100): 28%; Neutral Red Uptake, % (RPMI-7951 human melanoma; 5 μM): 100 % of control; Cell Viability (RPMI-7951 human melanoma; 5 μM): 112%; Neutral Red Uptake, % (RPMI-7951 human melanoma; 20 μM): 100 % of control; TF ([4]; 5 μM, DMSO = 100): 102%; TF ELISA ([4]; 5 μM, DMSO control 7054): 7200 pg/ml/well; TF ELISA ([4]; 20 μM, DMSO control 7054): 5316 pg/ml/well; TF [4, 11]: 7200 pg/mL
9 | COc1cc(CC2CCCC(Cc3ccc(O)c(OC)c3)C2=O)ccc1O (stereo not drawn) [Compound A231U] | – | – | – | – | 149% | 27875 ± 4446 pg/mL | 47% | 984 ± 349 pg/mL | 34% | 80% | 85% | 5981 pg/mL | VEGF (% of DMSO) ([2]; 20 μM): (149%); VEGF [2, 8]: 27875 ± 4446 pg/mL; TF ([4]; 5 μM, DMSO = 100): 78%; TF [4, 11]: 5473 pg/mL; VEGF (% of DMSO) ([3]; 20 μM): (47%); VEGF [3, 10]: 984 ± 349 pg/mL
10 | O=S(=O)(/C=C/c1ccccc1)/C=C/c1ccccc1 [EF12, 3,5-Bisbenzylidenesulfone] | – | – | – | – | – | – | – | – | 70% | 92% | – | – | –
11 | O=C(NCc1ccccc1)NCc1ccccc1 [Compound A271a] | – | – | – | – | 129% | 24190 ± 2160 pg/mL | 57% | 1196 ± 438 pg/mL | – | – | – | – | VEGF (% of DMSO) ([2]; 20 μM): (129%); VEGF [2, 8]: 24190 ± 2160 pg/mL; VEGF (% of DMSO) ([3]; 20 μM): (57%); VEGF [3, 10]: 1196 ± 438 pg/mL
12 | O=C(C=Cc1ccccc1F)C=Cc1ccccc1F [EF8, 1,5-Bis(2-fluorophenyl)penta-1,4-dien-3-one] | 2208 pg/ml/well | 2276 pg/mL | 319 pg/ml/well | 35 pg/mL | – | – | – | – | – | – | – | – | activity at 5 µM [1]: 54%; activity at 20 µM [1]: 1%; viability at 5 µM (RPMI-7951 human melanoma; [6]): 97%; viability at 20 µM (RPMI-7951 human melanoma; [6]): 8%; viability at 5 µM (RPMI-7951 human melanoma; [7]): 94%; viability at 20 µM (RPMI-7951 human melanoma; [7]): 54%
13 | CON=C(/C=C/c1ccccc1O)/C=C/c1ccccc1O [EF6, N-(Methoxy)-1,5-bis(2-hydroxyphenyl)penta-1,4-dien-3-imine] | – | – | – | – | – | – | – | – | – | – | – | – | activity at 20 µM [1]: 45%; viability at 20 µM (RPMI-7951 human melanoma; [7]): 72%
